ChEMBL document CHEMBL5523751, “Discovery of Novel Diaryl-Substituted Fused Heterocycles Targeting Katanin and Tubulin with Potent Antitumor and Antimultidrug Resistance Efficacy” (J Med Chem, 2024)
Calls of active or inactive are those of the source. The rule behind the calls is not given here.

Experiments:
MCF7 = assay: Antiproliferative activity against human MCF7 cells assessed as inhibition of cell growth measured after 48 hrs by MTT assay; assay type: functional, cell-based; settings: MCF7, 48 h
A549 = assay: Antiproliferative activity against human A549 assessed as inhibition of cell growth measured after 48 hrs by MTT assay; assay type: functional, cell-based; settings: A549, 48 h
[1] = molecular target: Katanin p60 ATPase-containing subunit A1 (Homo sapiens, UniProt O75449); assay: Binding affinity to N-terminal human Katanin p60 (8 to 229 residues) expressed in Escherichia coli Rosetta (DE3) by SPR analysis
Katanin p60 ATPase-containing subunit A1, sequence (O75449 whole entry, the tested form may be a part): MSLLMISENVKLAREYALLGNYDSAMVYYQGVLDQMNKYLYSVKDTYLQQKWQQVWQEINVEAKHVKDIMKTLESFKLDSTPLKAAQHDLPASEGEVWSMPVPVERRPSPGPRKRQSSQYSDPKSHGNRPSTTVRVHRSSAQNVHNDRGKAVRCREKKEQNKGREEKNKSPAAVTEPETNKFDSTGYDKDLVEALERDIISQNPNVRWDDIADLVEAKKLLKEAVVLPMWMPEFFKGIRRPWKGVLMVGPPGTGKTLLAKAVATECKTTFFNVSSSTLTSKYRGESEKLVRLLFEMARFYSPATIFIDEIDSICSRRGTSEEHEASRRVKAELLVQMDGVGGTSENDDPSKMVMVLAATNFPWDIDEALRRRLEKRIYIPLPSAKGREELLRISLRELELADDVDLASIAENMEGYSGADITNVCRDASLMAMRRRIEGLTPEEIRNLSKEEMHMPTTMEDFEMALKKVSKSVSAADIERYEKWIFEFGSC

[2] = Toxicity in Balb/C nude mouse assessed as mortality at 2.5 mg/kg, ip measured after 14 days; assay type: organism-based; settings: in vivo, 336 h, time 14 day
HeLa = assay: Antiproliferative activity against human HeLa assessed as inhibition of cell growth measured after 48 hrs by MTT assay; assay type: functional, cell-based
MDA-MB-468 = assay: Antiproliferative activity against human MDA-MB-468 cells assessed as inhibition of cell growth measured after 48 hrs by MTT assay; assay type: functional, cell-based; settings: MDA-MB-468, 48 h
[3] = Toxicity in Balb/C nude mouse assessed as abnormalities in kidney at 0.5 mg/kg, ip measured after 14 days by H and E staining based analysis; assay type: organism-based; settings: in vivo, 336 h, time 14 day
[4] = Resistance index, ratio of IC50 for antiproliferative activity against human A549/Taxol cells to IC50 for antiproliferative activity against human A549 cells; assay type: functional
SK-OV-3 = assay: Antiproliferative activity against human SK-OV-3 cells assessed as inhibition of cell growth measured after 48 hrs by MTT assay; assay type: functional, cell-based; settings: SK-OV-3, 48 h
[5] = Toxicity in Balb/C nude mouse assessed as abnormalities in heart at 0.5 mg/kg, ip measured after 14 days by H and E staining based analysis; assay type: organism-based; settings: in vivo, 336 h, time 14 day
[6] = Toxicity in Balb/C nude mouse assessed as abnormalities in liver at 0.5 mg/kg, ip measured after 14 days by H and E staining based analysis; assay type: organism-based; settings: in vivo, 336 h, time 14 day
HCT-116 = assay: Antiproliferative activity against human HCT-116 cells assessed as inhibition of cell growth measured after 48 hrs by MTT assay; assay type: functional, cell-based; settings: HCT-116, 48 h
[7] = Toxicity in Balb/C nude mouse assessed as abnormalities in spleen at 0.5 mg/kg, ip measured after 14 days by H and E staining based analysis; assay type: organism-based; settings: in vivo, 336 h, time 14 day
MDA-MB-231 [8] = assay: Antiproliferative activity against human MDA-MB-231 cells assessed as inhibition of cell growth measured after 48 hrs by MTT assay; assay type: functional, cell-based; settings: MDA-MB-231, 48 h
PANC-1 = assay: Antiproliferative activity against human PANC-1 assessed as inhibition of cell growth measured after 48 hrs by MTT assay; assay type: functional, cell-based; settings: PANC-1, 48 h
U-87 MG = assay: Antiproliferative activity against human U-87 MG assessed as inhibition of cell growth measured after 48 hrs by MTT assay; assay type: functional, cell-based, U-87MG ATCC
[9] = Toxicity in Balb/C nude mouse assessed as mortality at 0.25 mg/kg, ip measured after 14 days; assay type: organism-based; settings: in vivo, 336 h, time 14 day
[10] = Toxicity in Balb/C nude mouse assessed as abnormalities in lung at 0.5 mg/kg, ip measured after 14 days by H and E staining based analysis; assay type: organism-based; settings: in vivo, 336 h, time 14 day
DU-145 = assay: Antiproliferative activity against human DU-145 assessed as inhibition of cell growth measured after 48 hrs by MTT assay; assay type: functional, cell-based; settings: DU-145, 48 h
MGC-803 = assay: Antiproliferative activity against human MGC-803 assessed as inhibition of cell growth measured after 48 hrs by MTT assay; assay type: functional, cell-based; settings: MGC-803, 48 h
HT-29 = assay: Antiproliferative activity against human HT-29 cells assessed as inhibition of cell growth measured after 48 hrs by MTT assay; assay type: functional, cell-based; settings: HT-29, 48 h
A2780 = assay: Antiproliferative activity against human A2780 cells assessed as inhibition of cell growth measured after 48 hrs by MTT assay; assay type: functional, cell-based; settings: A2780, 48 h
A549/TR [11] = assay: Antitumor activity against paclitaxel resistant human A549/Taxol cells xenografted in BALB/c nude mouse model assessed as inhibition of tumor growth at 15 mg/kg, ip measured after 14 days relative to control; assay type: functional; design: scale not given: the % may be the effect or the level left; settings: time 14 day
[12] = Antiproliferative activity against cisplatin resistant human A2780/CDDP cells assessed as inhibition of cell growth measured after 48 hrs by MTT assay; assay type: functional, cell-based
MDA-MB-231 [13] = assay: Antitumor activity against human MDA-MB-231 cells xenografted in BALB/c nude mouse model assessed as tumor weight reduction at 7.5 mg/kg, ip measured after 14 days relative to control; assay type: functional; design: scale not given: the % may be the effect or the level left; settings: time 14 day
[14] = Antiproliferative activity against human CDDP-resistant A549 cell assessed as inhibition of cell growth measured after 48 hrs by MTT assay; assay type: functional, cell-based
A549/TR [15] = assay: Antiproliferative activity against paclitaxel resistant human A549/Taxol cells assessed as inhibition of cell growth measured after 48 hrs by MTT assay; assay type: functional, cell-based

SMILES: COc1ccc(C2C(CO)C(=O)N2c2cc(OC)c(OC)c(OC)c2)cc1O (configuration not stated)
- IC50 (MCF7): 12 nM

SMILES: COc1ccc(-c2cc3c(cc2F)ncn3-c2cc(OC)c(OC)c(OC)c2)cc1O
- IC50 (MCF7): 83 nM

SMILES: CCCc1ccc(-c2ccc3ncn(-c4cc(OC)c(OC)c(OC)c4)c3n2)cc1
- IC50 (MCF7): > 1000 nM

SMILES: COc1ccc(-c2cc(F)c3ncn(-c4cc(OC)c(OC)c(OC)c4)c3c2)cc1O
- IC50 (MCF7): 26 nM

SMILES: COc1ccc(-c2cc3c(cn2)ncn3-c2cc(OC)c(OC)c(OC)c2)cc1O
- IC50 (MCF7): 380 nM

SMILES: COc1ccc(-c2ccc3nc(C(F)(F)F)n(-c4cc(OC)c(OC)c(OC)c4)c3c2)cc1O
- IC50 (MCF7): > 1000 nM

SMILES: COc1cc2c(c(OC)c1OC)-c1ccc(OC)c(=O)cc1[C@@H](NC(C)=O)CC2 [COLCHICINE]
- IC50 (A549): 29 nM
- Activity [1]: inactive
- Activity [2]: Toxic
- IC50 (HeLa): 10 nM
- IC50 (MCF7): 25 nM
- IC50 (MDA-MB-468): 12 nM
- Activity [3]: Non-Toxic
- Ratio IC50 [4]: >10
- IC50 (SK-OV-3): 11 nM
- Activity [5]: Non-Toxic
- Activity [6]: Non-Toxic
- IC50 (HCT-116): 17 nM
- Activity [7]: Non-Toxic
- IC50 (MDA-MB-231 [8]): 36 nM
- IC50 (PANC-1): 25 nM
- IC50 (U-87 MG): 36 nM
- Activity [9]: Non-Toxic
- Activity [10]: Non-Toxic
- IC50 (DU-145): 20 nM
- IC50 (MGC-803): 2 nM
- IC50 (HT-29): 59 nM
- IC50 (A2780): 13 nM

SMILES: CC(=O)O[C@H]1C(=O)[C@@]2(C)[C@H]([C@H](OC(=O)c3ccccc3)[C@]3(O)C[C@H](OC(=O)[C@H](O)[C@@H](NC(=O)c4ccccc4)c4ccccc4)C(C)=C1C3(C)C)[C@]1(OC(C)=O)CO[C@@H]1C[C@@H]2O [PACLITAXEL]
- Activity (A549/TR [11]): 22%
- IC50 [12]: > 500000 nM
- Activity (MDA-MB-231 [13]): 54%
- IC50 [14]: > 200000 nM
- IC50 (A549/TR [15]): > 500 nM

SMILES: COc1cc(-n2cnc3ccc(-c4ccc(C)c(F)c4)nc32)cc(OC)c1OC
- IC50 (MCF7): 14 nM

SMILES: COc1cc(-n2cnc3c(OC)cc(-c4ccc(C)c(N)c4)cc32)cc(OC)c1OC
- IC50 (MCF7): 9 nM

SMILES: CC[C@]1(O)C[C@H]2CN(CCc3c([nH]c4ccccc34)[C@@](C(=O)OC)(c3cc4c(cc3OC)N(C=O)[C@H]3[C@@](O)(C(=O)OC)[C@H](OC(C)=O)[C@]5(CC)C=CCN6CC[C@]43[C@@H]65)C2)C1 [VINCRISTINE]
- Ratio IC50 [4]: >10

SMILES: COc1cc(-n2cnc3ccc(-c4ccc(C)c(Cl)c4)nc32)cc(OC)c1OC
- IC50 (MCF7): 121 nM

SMILES: COc1ccc(-c2ccc3nc(C)n(-c4cc(OC)c(OC)c(OC)c4)c3c2)cc1O
- IC50 (MCF7): 267 nM

SMILES: COc1ccc(-c2cc3c(cn2)[nH]c(=O)n3-c2cc(OC)c(OC)c(OC)c2)cc1O
- IC50 (MCF7): 598 nM

SMILES: COc1cc(-n2cnc3c(OC)cc(-c4ccc(N)c([N+](=O)[O-])c4)cc32)cc(OC)c1OC
- IC50 (MCF7): 256 nM

SMILES: COc1ccc(-c2cc3c(cc2F)nc(C)n3-c2cc(OC)c(OC)c(OC)c2)cc1O
- IC50 (MCF7): 266 nM

SMILES: COc1cc(-n2cnc3c(OC)cc(-c4ccc(C)c(NC(C)=O)c4)cc32)cc(OC)c1OC
- IC50 (MCF7): 433 nM

SMILES: COc1cc(-n2cnc3c(OC)cc(-c4ccc(C)c(O)c4)cc32)cc(OC)c1OC
- IC50 (MCF7): 42 nM

SMILES: COc1cc(-n2cnc3ccc(Oc4ccc(C)c(N)c4)nc32)cc(OC)c1OC
- IC50 (MCF7): > 1000 nM

SMILES: COc1ccc(-c2cc(OC)c3ncn(-c4cc(OC)c(OC)c(OC)c4)c3c2)cc1O
- IC50 (MCF7): 24 nM

SMILES: COc1ccc(-c2cc3c(cc2OC)ncn3-c2cc(OC)c(OC)c(OC)c2)cc1O
- IC50 (MCF7): > 1000 nM

SMILES: COc1cc(-n2cnc3c(OC)cc(-c4ccc(C)c(CO)c4)cc32)cc(OC)c1OC
- IC50 (MCF7): 67 nM
